# In patent US12312327B2, “Crystal of 1,3,5-triazine derivative or solvate thereof and method for producing same” (Shionogi & Co., Ltd., priority 2019, dated 2025):
# Tests used:
# [1] = Solid stability test (80° C. hermetically sealed, one week, HPLC Method D); type: physicochemical; conditions: for Residual ratio (%): sealed storage, content by HPLC; for Types of analogous substances generated: 80° C. hermetically sealed, one week
# Method: Column: Cadenza CD-C18, φ 3.0×150 mm, 3 μm
# Flow rate: 0.55 mL per minute
# UV detection wavelength: 262 nm
# Mobile phase A: 0.1% TFA aqueous solution
# Mobile phase B: Acetonitrile
# 5 mg sample (n=4) was precisely weighed in 2 mL vial, capped, and stored at a predetermined temperature (sealed storage). Then, each sample was taken out after storage for a predetermined period, and stability (content) was evaluated.
# 80° C. hermetically sealed
# Each vial was washed out into a 25 mL volumetric flask.
# Diluting medium: acetonitrile/water=1/1
# [2] = Flowability test (Compressibility index and Hausner ratio); type: physicochemical; conditions: for Compressibility index (%): (V0−Vf)/V0×100; for Hausner ratio: V0/Vf; for V0 (mL), loose bulk volume: about 10 g sample in 50 mL measuring cylinder, no compaction; for V0 (mL), loose bulk volume / Vf (mL), final tap volume: average of three; for Vf (mL), final tap volume: about 10 g sample, tapped until volume difference <= 0.5 mL
# Method: 1) About 10 g of a sample was gently put into a 50 mL measuring cylinder, and the sample amount was measured.
# 2) The upper surface of the powder layer was carefully leveled without compaction, and the loose bulk volume (V0) was read.
# 3) The measuring cylinder was mounted on a support stand of a powder tester (PT-X type, Hosokawa Micron Corporation).
# 4) The powder sample was tapped 10 times, 500 times, 1250 times, 2500 times and the corresponding bulk volumes (V10, V500, V1250, V2500) were read.
# 5) The process was ended when the volume difference was equal to or less than the minimum scale (0.5 mL), and the final bulk volume was defined as the final tap volume (Vf).
# 6) The steps 1) to 5) were repeated three times and measured, and the average values were adopted for calculation of the Compressibility index and the Hausner ratio.
# Compressibility index=(V0−Vf)/V0×100 Hausner ratio=V0/Vf
smiles,measurement,setting,value
C[C@@H](Cn1c(=O)[nH]/c(=N\c2ccc(Oc3ccccn3)cc2)n(Cc2ccc(Cl)cc2)c1=O)C(=O)O [Ethyl acetate/hexane solvate crystal of compound represented] [reference compound],"Peak area (%) of analogous substance, retention time 3 min",[1]; 80° C. 1W,0.06%
same,"Peak area (%) of analogous substance, retention time 5.8 min",[1]; 80° C. 1W,0.01%
same,"Peak area (%) of analogous substance, retention time 10.5 min",[1]; 80° C. 1W,0.14%
same,"Peak area (%) of analogous substance, retention time 14 min",[1]; 80° C. 1W,0.04%
same,"Peak area (%) of analogous substance, retention time 16.9 min",[1]; 80° C. 1W,0.03%
same,Purity (%),[1]; 80° C. 1W,99.71%
same,Residual ratio (%),[1]; 80° C. 1W,99.03%
same,Types of analogous substances generated,[1],five types
same,"Peak area (%) of analogous substance, retention time 3 min",[1]; Initial,0.06%
same,"Peak area (%) of analogous substance, retention time 5.8 min",[1]; Initial,0.01%
same,"Peak area (%) of analogous substance, retention time 10.5 min",[1]; Initial,0.15%
same,"Peak area (%) of analogous substance, retention time 14 min",[1]; Initial,0.04%
same,"Peak area (%) of analogous substance, retention time 16.9 min",[1]; Initial,0.04%
same,Purity (%),[1]; Initial,99.71%
same,Compressibility index (%),[2],36.7%
same,Hausner ratio,[2],1.6
same,"V0 (mL), loose bulk volume",[2],36.8 mL
same,"Vf (mL), final tap volume",[2],23.3 mL
C[C@@H](Cn1c(=O)[nH]/c(=N\c2ccc(Oc3ccccn3)cc2)n(Cc2ccc(Cl)cc2)c1=O)C(=O)O [Anhydrous crystal Form I of compound represented by Formula ],"Peak area (%) of analogous substance, retention time 15.5 min",[1]; 80° C. 1W,0.16%
same,"Peak area (%) of analogous substance, retention time 17.1 min",[1]; 80° C. 1W,0.04%
same,"Peak area (%) of analogous substance, retention time 20.6 min",[1]; 80° C. 1W,0.03%
same,Purity (%),[1]; 80° C. 1W,99.77%
same,Residual ratio (%),[1]; 80° C. 1W,99.79%
same,Types of analogous substances generated,[1],three types
same,"Peak area (%) of analogous substance, retention time 15.5 min",[1]; Initial,0.16%
same,"Peak area (%) of analogous substance, retention time 17.1 min",[1]; Initial,0.05%
same,"Peak area (%) of analogous substance, retention time 20.6 min",[1]; Initial,0.03%
same,Purity (%),[1]; Initial,99.76%
same,Compressibility index (%),[2],25.4%
same,Hausner ratio,[2],1.3
same,"V0 (mL), loose bulk volume",[2],19.0 mL
same,"Vf (mL), final tap volume",[2],14.2 mL
same,Flowability compared with the other crystal forms,"[2]; from Compressibility index, Table 15",better flowability as compared with the other two crystal forms
C[C@@H](Cn1c(=O)[nH]/c(=N\c2ccc(Oc3ccccn3)cc2)n(Cc2ccc(Cl)cc2)c1=O)C(=O)O [Dihydrate crystal of compound represented by Formula (I)],"Peak area (%) of analogous substance, retention time 3 min",[1]; 80° C. 1W,0.05%
same,"Peak area (%) of analogous substance, retention time 15.5 min",[1]; 80° C. 1W,0.09%
same,Purity (%),[1]; 80° C. 1W,99.86%
same,Residual ratio (%),[1]; 80° C. 1W,99.13%
same,Types of analogous substances generated,[1],two types
same,"Peak area (%) of analogous substance, retention time 15.5 min",[1]; Initial,0.09%
same,Purity (%),[1]; Initial,99.91%
same,Compressibility index (%),[2],35.9%
same,Hausner ratio,[2],1.6
same,"V0 (mL), loose bulk volume",[2],30.7 mL
same,"Vf (mL), final tap volume",[2],19.7 mL
